We go through two compounds from patent US20040143012A1, “Method for stabilising particle size distribution of powder active principle dispersed in a liquid and uses thereof” (priority 2000, published 2004).

The bioavailability is the share of a dose that reaches the circulation, judged against a reference dose that is usually intravenous.

For series [1] the following is noted: oral, cited from earlier work.
A short description of series [2]: Particle size analysis of isotretinoin powder by laser scattering granulometer, before and after dispersion in liquid media. In kind it is physicochemical. The procedure: The ability of glycol ethers to stabilize the particle size of an active principle was established by means of studies aimed at comparing the particle size of an isotretinoin powder supposed to have, according to its supplier, a median of 20 μm, before and after dispersion in 5 different liquid media consisting, respectively, of:
The particle size of the isotretinoin powder before dispersion in the liquid media, ie in dry form, was analyzed on samples of 2 g of powder (the vehicle in this case being compressed air), whereas its particle size after dispersion in the various liquid media was analyzed on samples of 20 ml containing 2% (w/v) of this powder, except in the case of the oily mixture, in which the content of isotretinoin powder in the samples was 6.5% (w/v).
All the particle size analyses were carried out using a Mastersizer Banc Long laser scattering granulometer (Malvern Instruments Ltd company) and an MS1 sampler from the same company.

For series [3] the following is noted: isotretinoin powder, supplier's statement; cited from earlier work.

Several values for one entry are separate records, joined by “and”; a condition that tells them apart may be missing. Equal values may be shown once. Read-outs that look alike come from different tables or passages of the source.

`COc1cc(C)c(/C=C/C(C)=C/C=C/C(C)=C/C(=O)O)c(C)c1C` [acitretin]: the bioavailability in series [1] (gel capsules of 10 and 25 mg, on average) is 60%.
On to `CC1=C(/C=C/C(C)=C/C=C/C(C)=C\C(=O)O)C(C)(C)CCC1` [isotretinoin, 13-cis-retinoic acid], for which the “Median of the particle size” value in series [2] (after dispersion in Labrafac PG (propylene glycol dicaprylocaprate), 2% (w/v)) is 193.15 μm; in series [2] (after dispersion in Labrasol (caprylocapric macrogolglycerides), 2% (w/v)) it was 139.77 μm; in series [2] (after dispersion in Transcutol (diethylene glycol monoethyl ether, DGME), 2% (w/v)), 20.86 μm; in series [2] (after dispersion in oily mixture of the Roaccutane type (yellow wax, soybean oils, partially hydrogenated plant oil, medium-chain triglyceride), 6.5% (w/v)), 82.92 μm; in series [2] (isotretinoin powder in dry form, before dispersion (2 g samples, compressed air)), 20 μm and 19.49 μm. For the same compound, in series [1] (soft capsules (Roaccutane), suspension in oily vehicle), the bioavailability entry was “about 25%”. Moreover, the “Median particle size according to supplier” value in series [3] is 20 μm.
